Laboratory results reported in US9861592B2, “Methods and compositions for treating neurodegenerative diseases” (Golden Biotechnology Corporation, priority 2012, dated 2018).
In brackets after ≈: the same amount, converted by molar mass.

Tested on: PC12 cells
Assay: CCK-8 cell viability assay, titration of Compound 1 in NGF-induced PC12 cells
Format: cell-based
Details: Rattus norvegicus, PC-12, 48 h
Method: Rat pheochromocytoma PC12 cells, purchased from Bioresource Collection and Research Center (BCRC), were cultured in RPMI1640 medium (Gibco, MD) containing 10% fetal calf serum, 5% horse donor serum, 100 μg/ml streptomycin, 100 units/ml penicillin, 2 mM L-glutamine, and maintained in humidified incubator at 37° C. with 5% CO2. Cells were transferred twice a week. Experiments were carried out in 96-well plates coated with poly-D-lysine (1 mg/mL) to assist cell adhesion. PC12 cells were grown on medium with mouse submaxillary-gland nerve growth factor (NGF 2.5S, 100 ng/ml; Invitrogen, Carlsbad, Calif.) for 48 h to induce differentiation into neuron-like cells before all experiments conducted in this study.
To optimize the exemplary Compound 1 concentration for NGF-induced PC12 neural model, titration experiments were performed to determine the IC50 values of Compound 1 in PC12. PC12 Cells (1×10^4 cells) were incubated with various concentrations of Compound 1 (0.001, 0.01, 0.1, 1, 10, 100 μg/ml in a 10% serum-supplemented medium; 0.3, 1, 3, 10, 30, 100 μg/ml in serum-free medium) for 48 h.
The viability of cells was measured using the Cell Counting Kit-8 (CCK-8, Enzo, Life Sciences). A highly water-soluble tetrazolium salt, WST-8, is reduced by dehydrogenases in cells to give a yellow-colored product (formazan), which is soluble in the culture medium. The amount of the fomazan dye generated by the activity of dehydrogenases in cells is directly proportional to the number of living cells. After treatments, the CCK-8 solution was added to each well of plates and incubates the plate for 4 h in the incubator. The concentration of the formazan product was determined spectrophotometrically at an absorbance wavelength 450 nm and cell viability was expressed as a percentage of the corresponding control.

What does the source list for `COC1=C(OC)C(O)C(C/C=C(\C)CC/C=C(\C)CCC=C(C)C)C(C)C1=O` (stereo not drawn) [Compound 1, 4-hydroxy-2,3-dimethoxy-6-methyl-5-(3,7,11-trimethyldodeca-2,6,10-trienyl)cyclohex-2-enone]?
IC50 (PC12, 10% serum supplemented media, unit as printed in b23): 58 µg/mL (≈ 148 µM); IC50 (PC12, 10% serum supplemented media, unit as printed in b151): 58 µg/mL (≈ 148 µM); IC50 (PC12, serum-free media): 13.4 µg/mL (≈ 34.3 µM)
